For orientation: viability means a read-out of living cells in per cent, often relative to untreated cells.

This passage reports viability results from PMC12040169 (PLOS Biology, 2025).

This series can be described thus: in vitro. The settings on record: human, hela cells, % viability.

With `COc1cc(NC(=O)NC(=O)C2CCN(C(C)=O)CC2)cc(OC)c1OC` [CBK034831], the viability at 28.5 h, 10 µM was 114%.
Next, `Cc1ccc(CN(CC2CCOC2)C2CC(C)(C)NC(C)(C)C2)o1` (stereo not shown) [CBK283174]: 92.6%; `COc1ccc(CC(C(=O)O)C(=O)O)cc1OC` [CBK262127]: 95.9%; `CCN1CCOC(CNCc2ccc(OCC(N)=O)cc2)C1` (stereo not shown) [CBK305108]: 96.8%.
Next, `Cc1ccccc1C(=O)NCC(=O)NCc1csc(-c2ccccc2)n1` [CBK092334]: 91.8%; `CCCCOc1ccc(Sc2nc(C)cc(C)n2)cc1` [CBK009219]: 92.1%.
Under `O=C(CN1CCCCCC1)N/N=C/c1ccccc1Cl` [CBK261589] stands 89.4%; under `CCOc1ccc(N(Cc2cc3cc(C)ccc3nc2O)C(=O)c2ccccc2OC)cc1` [CBK265427], 103%; under `S=C1C=C(c2ccccc2)Nc2ccccc2N1` [CBK288438], 87.2%.
As to `CC(=O)c1ccc(CN2CCN(S(=O)(=O)c3ccc(C(F)(F)F)cc3Cl)CC2)cc1` [CBK063072], the viability at 28.5 h, 10 µM worked out at 96%.
Under `CC(C)NC(=O)Cn1c(-c2ccc(F)cc2)cc2cccnc21` [CBK284862] stands 107%.
Next, `COC(=O)CNC(=O)c1ccc(S(=O)(=O)N2CCOCC2)cc1` [CBK264873]: 109%; `CCn1cc(NS(=O)(=O)c2ccc(N3CCCC3=O)cc2)cn1` [CBK305922]: 85.3%; `CC(=O)Oc1cccc(N2C(=O)c3ccc(Oc4cccc(N)c4)cc3C2=O)c1` [CBK261099]: 96.4%.
Consider `Cc1ccc(NC(=O)c2ccccc2NS(=O)(=O)c2cccc(C(=O)O)c2)cc1` [CBK296695], for which the viability at 28.5 h, 10 µM was 122%.
Next, `CC(C)C(NC(=O)C1CCC(C(C)(C)C)CC1)C(=O)O` (stereo not shown) [CBK286610]: 95.5%.
As to `COc1ccc(C(=O)C2=C(O)C(=O)N(CCN(C)C)C2c2cccc([N+](=O)[O-])c2)cc1C` (stereo not shown) [CBK264875], the viability at 28.5 h, 10 µM was determined as 85.2%.
Regarding `O=[N+]([O-])c1ccc(/C=C/c2nn3c(Cn4cnc5ccccc54)nnc3s2)cc1` [CBK268273], the viability at 28.5 h, 10 µM came to 104%.
Regarding `CC(C)(C)OC(=O)N1CCCN(Cc2nnc(-c3ccco3)o2)CC1` [CBK305271], the viability at 28.5 h, 10 µM stood at 103%.
Next, `O=C(CSc1ccccc1)Nc1nccs1` [CBK288213]: 109%; `COCC(=O)N1CC[C@H](c2nnc(-c3ccc(C)cc3)o2)C1` [CBK289410]: 114%; `CN(C)c1ccccc1-c1cnc(N2CCOCC2)c2nccn12` [CBK091280]: 90.7%.
Next, `COc1cc(/C=N/NC(=O)c2ccc([N+](=O)[O-])cc2)ccc1OC(C)=O` [CBK261348]: 112%; `c1c(CC2CCCCC2)nnn1[C@H]1CO[C@H]2[C@@H]1OC[C@@H]2NCC1CC1` [CBK289511]: 99.1%; `O=S(=O)(Nc1cccc(C(F)(F)F)c1)c1cc2c(N3CCNCC3)nccc2s1` [CBK039085C]: 103%.
Under `CS(=O)(=O)c1nc2cccnc2s1` [CBK017260] stands 95.2%.
Turning to `O=C(Cc1ccsc1)NCCn1nc(-c2cccs2)ccc1=O` [CBK283842], the viability at 28.5 h, 10 µM was 96.5%.
Under `N#CCCCN1CCCN(c2cc(OCC3COc4ccccc4O3)ncn2)CC1` (stereo not shown) [CBK083391T] stands 85.8%.
Under `CC(C)C(=O)N1C2CCC1Cn1c(nc3ccccc3c1=O)C2` (stereo not shown) [CBK284450] stands 85.3%; under `CC(Sc1nc2ccccc2[nH]1)C(=O)Nc1ccc(S(N)(=O)=O)cc1` (stereo not shown) [CBK266128], 114%; under `Cc1ccn(CCNC(=O)c2[nH]c3c(Cl)cccc3c2C)n1` [CBK282608], 97.9%.
Regarding `CCN1C(=O)c2ccccc2C(=O)[C@@]2(C)CN(C(C)C)C[C@@H]12` [CBK283480], the viability at 28.5 h, 10 µM is 109%.
Next, `COc1cccc(-c2ccc(C(=O)Nc3ccc4c(c3)OCO4)c(N3CCOCC3)n2)c1` [CBK076509]: 93.5%.
Under `CC(C)CN1C(=O)COC[C@@H]1[C@H](O)c1ccc(NC(=O)c2cccnc2)cc1` [CBK289692] stands 105%.
Under `CC(C)(C)OC(=O)NCc1ccc(-c2cc(Nc3cccc(Cl)c3)ncn2)cc1` [CBK037842] stands 92.8%; under `Cc1csc(C(Cc2cccs2)NC(=O)C2CCOC2)n1` (stereo not shown) [CBK285123], 106%; under `O=C(Nc1ccc2c(c1)OCCO2)N1CCN(c2cc(C(F)(F)F)ccn2)CC1` [CBK162331], 99.4%.
Turning to `COC(=O)CN1C(=O)S/C(=C/c2ccc(OCc3cccc(C(=O)O)c3)c(Cl)c2)C1=O` [CBK265262], the viability at 28.5 h, 10 µM was 90.2%.
`COc1cc(C)c(CN2CCN(S(=O)(=O)c3cc(C(=O)O)cs3)CC2)cc1OC` [CBK297093]: the viability at 28.5 h, 10 µM amounted to 97.2%.
For the compound `C[C@H]1CN([C@H]2C[C@@H](O)[C@@H](CO)O2)C(=O)NC1=O` [CBK201206], the viability at 28.5 h, 10 µM is 96.9%.
Next, `CC(NC(=O)CCc1cscn1)c1nc(-c2ccncc2)cs1` (stereo not shown) [CBK305260]: 77.6%; `COCC(=O)N[C@H]1CCN2C(=O)c3cc(-c4ccccc4F)ccc3NC(=O)[C@@H]2C1` [CBK289553]: 95.6%; `COc1ccccc1N1CCN(C2CCN(S(=O)(=O)c3ccc(NC(C)=O)cc3)CC2)CC1` [CBK264688]: 93.7%.
Take `CS(=O)(=O)N(CC(=O)Nc1ccc2c(c1)OCO2)c1ccc(Oc2ccccc2)cc1` [CBK263989]: the viability at 28.5 h, 10 µM worked out at 91.5%.
Next, `CC1CCN(c2ccc(C(C)NC(=O)Cn3cccn3)cc2)CC1` (stereo not shown) [CBK281725]: 86.1%; `N#C/C(=C\c1cn(-c2ccccc2)nc1-c1cccc(S(=O)(=O)N2CCCCCC2)c1)c1nc2ccccc2c(=O)[nH]1` [CBK266347]: 103%; `O=C(Nc1ccc(S(=O)(=O)Nc2cncs2)cc1)c1ccc(-c2cccc(C(F)(F)F)c2)o1` [CBK266625]: 89%.
On to `COc1cccc(N2CCN(c3cc4n[nH]c(=O)n4cn3)CC2)c1` [CBK300511], for which the viability at 28.5 h, 10 µM came to 87.1%.
Next, `O=C(NC[C@H]1CC[C@H](c2cc(C(=O)N3CCOCC3)c3ccccc3n2)CC1)C1CCCC1` [CBK285979]: 89.9%; `Cc1nn(C)c(C)c1NC(=O)COc1ccc2c(c1)CCCC2=O` [CBK304963]: 98.5%.
As to `c1ccc2nc(N3CCCC3)c(Sc3nccs3)nc2c1` [CBK093794], the viability at 28.5 h, 10 µM came to 110%.
Under `COc1ccc(NC(=O)c2ccc3nsnc3c2)cc1` [CBK263160] stands 92.6%; under `Cc1cc(C)n(-c2nc3cc(Cl)ccc3nc2Nc2ccc3c(c2)OCO3)n1` [CBK268380], 91.9%; under `Cc1ccc(-c2csc(=Nc3ccc(C(=O)O)cc3)n2Cc2ccccc2)cc1` [CBK296062], 105%.
In the case of `Cc1cccn2c(=O)cc(CN3CCC(c4cnn(C)c4)CC3)nc12` [CBK305806], the viability at 28.5 h, 10 µM was determined as 101%.
